Columns and labels:
[1] = biological target: T1, Vasoactive intestinal polypeptide receptor 1 (Homo sapiens, UniProt P32241); format: cell membranes, Membrane; settings: ht-29; note: in other assays of this panel Not Active means under 50% inhibition at 10 µM
T1 sequence (P32241 whole entry): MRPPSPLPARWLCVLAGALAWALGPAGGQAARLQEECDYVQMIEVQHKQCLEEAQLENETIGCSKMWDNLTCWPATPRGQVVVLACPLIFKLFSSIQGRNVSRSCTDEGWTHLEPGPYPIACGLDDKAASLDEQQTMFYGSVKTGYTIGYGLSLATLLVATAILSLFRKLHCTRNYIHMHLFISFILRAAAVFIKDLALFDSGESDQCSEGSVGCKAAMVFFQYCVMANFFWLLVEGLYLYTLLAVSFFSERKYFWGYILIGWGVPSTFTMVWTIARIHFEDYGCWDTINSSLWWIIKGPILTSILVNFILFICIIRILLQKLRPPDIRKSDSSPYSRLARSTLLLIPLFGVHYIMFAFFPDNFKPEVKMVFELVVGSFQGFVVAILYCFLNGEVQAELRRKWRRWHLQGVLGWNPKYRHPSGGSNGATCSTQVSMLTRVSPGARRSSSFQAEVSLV

[2] = biological target: Prostaglandin G/H synthase 1 (Homo sapiens, UniProt P23219); experiment: biochemical; format: tissue-based, Platelet;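 note: inhibition of COX-1 enzyme activity, with arachidonic acid supplied as substrate; in other assays of this panel Not Active means under 50% inhibition at 10 µM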
Chain of Prostaglandin G/H synthase 1 (P23219 whole entry): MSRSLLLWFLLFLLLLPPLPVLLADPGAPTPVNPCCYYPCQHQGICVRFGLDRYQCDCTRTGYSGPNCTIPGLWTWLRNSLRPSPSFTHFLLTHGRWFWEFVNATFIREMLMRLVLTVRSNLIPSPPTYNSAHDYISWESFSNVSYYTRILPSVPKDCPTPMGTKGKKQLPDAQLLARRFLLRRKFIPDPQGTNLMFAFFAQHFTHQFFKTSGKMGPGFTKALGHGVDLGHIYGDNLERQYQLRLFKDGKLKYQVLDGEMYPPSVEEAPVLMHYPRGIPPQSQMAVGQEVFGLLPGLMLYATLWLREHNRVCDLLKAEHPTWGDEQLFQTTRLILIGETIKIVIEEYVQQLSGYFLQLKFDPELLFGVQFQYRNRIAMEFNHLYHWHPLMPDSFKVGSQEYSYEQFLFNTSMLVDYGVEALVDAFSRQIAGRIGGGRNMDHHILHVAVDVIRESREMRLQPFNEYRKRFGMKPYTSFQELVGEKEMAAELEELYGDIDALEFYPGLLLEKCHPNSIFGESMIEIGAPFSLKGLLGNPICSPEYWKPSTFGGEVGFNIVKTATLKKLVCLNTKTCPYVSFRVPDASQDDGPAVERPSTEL

[3] = biological target: Carbonic anhydrase 2 (Homo sapiens, UniProt P00918); experiment: DRUGMATRIX: Carbonic Anhydrase II enzyme inhibition (substrate: 4-Nitrophenyl acetate (4-NPA)); format: tissue-based, Erythrocyte; settings: Not Active = under 50% inhibition at 10 µM
[4] = biological target: T2, Neutrophil elastase (Homo sapiens, UniProt P08246); format: tissue-based;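 note: inhibition of neutrophil elastase enzyme activity, measured with a p-nitroanilide-linked peptide substrate; in other assays of this panel Not Active means under 50% inhibition at 10 µM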
T2 sequence (P08246 whole entry): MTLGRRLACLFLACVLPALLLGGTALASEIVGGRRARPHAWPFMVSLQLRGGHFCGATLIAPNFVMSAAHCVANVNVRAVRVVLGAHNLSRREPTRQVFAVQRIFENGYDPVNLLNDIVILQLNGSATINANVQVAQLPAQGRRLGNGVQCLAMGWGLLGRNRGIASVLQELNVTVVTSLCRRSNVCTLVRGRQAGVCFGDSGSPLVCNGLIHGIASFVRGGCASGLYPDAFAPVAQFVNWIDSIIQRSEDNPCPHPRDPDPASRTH

[5] = biological target: Aldo-keto reductase family 1 member B1 (Rattus norvegicus, UniProt P07943); experiment: biochemical; format: tissue-based, Lens of camera-type eye;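 note: inhibition of aldose reductase enzyme activity, measured with DL-glyceraldehyde as the substrate; in other assays of this panel Not Active means under 50% inhibition at 10 µM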
[6] = DRUGMATRIX: Imidazoline I2, Central radioligand binding (ligand: [3H] Idazoxan); format: cell membranes, Rattus norvegicus, Wistar, Cerebral cortex, Membrane; settings: Not Active = under 50% inhibition at 10 µM
[7] = biological target: Insulin receptor (Rattus norvegicus, UniProt P15127); format: cell membranes, Wistar, Liver, Membrane; note: in other assays of this panel Not Active means under 50% inhibition at 10 µM
Chain of Insulin receptor (P15127 27-759 limits assumed): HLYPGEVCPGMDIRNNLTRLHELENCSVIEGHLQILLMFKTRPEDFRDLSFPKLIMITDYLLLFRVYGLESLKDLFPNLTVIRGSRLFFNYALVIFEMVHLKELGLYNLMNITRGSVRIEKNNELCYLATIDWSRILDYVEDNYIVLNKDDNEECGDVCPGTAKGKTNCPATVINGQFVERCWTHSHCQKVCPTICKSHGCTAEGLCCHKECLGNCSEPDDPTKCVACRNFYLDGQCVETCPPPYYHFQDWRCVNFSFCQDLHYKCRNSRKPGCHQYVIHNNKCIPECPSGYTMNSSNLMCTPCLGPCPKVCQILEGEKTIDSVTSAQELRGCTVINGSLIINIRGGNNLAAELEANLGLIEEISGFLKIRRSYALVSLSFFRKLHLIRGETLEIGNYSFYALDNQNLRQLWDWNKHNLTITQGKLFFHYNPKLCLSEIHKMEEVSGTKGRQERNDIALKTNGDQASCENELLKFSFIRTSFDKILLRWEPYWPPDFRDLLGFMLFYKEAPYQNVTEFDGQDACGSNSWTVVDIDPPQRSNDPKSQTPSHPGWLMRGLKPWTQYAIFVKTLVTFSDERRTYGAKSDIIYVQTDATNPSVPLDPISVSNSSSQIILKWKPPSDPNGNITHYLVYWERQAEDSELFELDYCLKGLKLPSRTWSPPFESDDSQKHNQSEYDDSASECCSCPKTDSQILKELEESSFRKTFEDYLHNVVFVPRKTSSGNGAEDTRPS
Chain of Insulin receptor (P15127 764-1383 limits assumed): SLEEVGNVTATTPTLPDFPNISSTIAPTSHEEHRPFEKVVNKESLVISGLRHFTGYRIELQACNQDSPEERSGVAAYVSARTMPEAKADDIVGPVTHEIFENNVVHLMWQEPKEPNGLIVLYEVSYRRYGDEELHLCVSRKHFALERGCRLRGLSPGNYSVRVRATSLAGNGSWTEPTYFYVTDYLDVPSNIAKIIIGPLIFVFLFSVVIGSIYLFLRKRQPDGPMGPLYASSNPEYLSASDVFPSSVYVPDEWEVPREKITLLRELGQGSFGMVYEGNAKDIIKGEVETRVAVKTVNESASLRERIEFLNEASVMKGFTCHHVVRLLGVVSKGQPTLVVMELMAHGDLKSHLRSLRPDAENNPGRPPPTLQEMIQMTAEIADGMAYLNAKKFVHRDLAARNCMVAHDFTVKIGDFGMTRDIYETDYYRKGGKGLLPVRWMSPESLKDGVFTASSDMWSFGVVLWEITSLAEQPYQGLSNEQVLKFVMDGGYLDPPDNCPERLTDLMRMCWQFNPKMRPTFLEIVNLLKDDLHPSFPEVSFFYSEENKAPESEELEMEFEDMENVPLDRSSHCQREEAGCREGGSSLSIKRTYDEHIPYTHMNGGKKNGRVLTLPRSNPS

In the case of `Cl.NC[C@H]1CC[C@H](C(=O)Oc2ccc(CCC(=O)O)cc2)CC1` [CETRAXATE HYDROCHLORIDE], the IC50 [1] is reported as “Not Active”, the IC50 ([2]; platelet) is reported as “Not Active” and the IC50 ([3]; erythrocyte) is reported as “Not Active”. The IC50 [4] was “Not Active”, the IC50 [5] was “Not Active” and the IC50 [6] was “Not Active”. The Ki [6] was “Not Active” and the IC50 [7] was “Not Active”.

In the case of `COc1cc([C@@H]2c3cc4c(cc3[C@H](O)[C@H]3COC(=O)[C@H]23)OCO4)cc(OC)c1OC` [PODOFILOX], the IC50 [1] is reported as “Not Active”, the IC50 ([2]; platelet) is reported as “Not Active” and the IC50 ([3]; erythrocyte) is reported as “Not Active”. For the same compound, the IC50 [4] was “Not Active”, the IC50 [5] was “Not Active” and the IC50 [6] was “Not Active”. For the same compound, the Ki [6] was “Not Active” and the IC50 [7] was “Not Active”.

In the case of `COc1cc(/C=C/C(=O)O)ccc1O` [FERULATE], the IC50 [1] is reported as “Not Active”, the IC50 ([2]; platelet) is reported as “Not Active” and the IC50 ([3]; erythrocyte) is reported as “Not Active”. The IC50 [4] was “Not Active”, the IC50 [5] was “Not Active” and the IC50 [6] was “Not Active”. The Ki [6] was “Not Active” and the IC50 [7] was “Not Active”.

In the case of `c1ccc(Cn2ccnc2)cc1`, the IC50 [1] is reported as “Not Active”, the IC50 ([2]; platelet) is reported as “Not Active” and the IC50 ([3]; erythrocyte) is reported as “Not Active”. The IC50 [4] was “Not Active”, the IC50 [5] was “Not Active” and the IC50 [6] was “Not Active”. The Ki [6] was “Not Active” and the IC50 [7] was “Not Active”.

With `C[C@H]1C[C@H]2[C@@H]3CCC4=CC(=O)C=C[C@]4(C)[C@@]3(F)[C@@H](O)C[C@]2(C)[C@@]1(O)C(=O)CO` [BETAMETHASONE] the IC50 [1] was “Not Active”, the IC50 ([2]; platelet) was “Not Active” and the IC50 ([3]; erythrocyte) was “Not Active”. For the same compound, the IC50 [4] was “Not Active”, the IC50 [5] was “Not Active” and the IC50 [6] was “Not Active”. For the same compound, the Ki [6] was “Not Active” and the IC50 [7] was “Not Active”.

With `Nc1nc(N)c2nc(CNc3ccc(C(=O)N[C@@H](CCC(=O)O)C(=O)O)cc3)cnc2n1` [AMINOPTERIN] the IC50 [1] was “Not Active”, the IC50 ([2]; platelet) was “Not Active” and the IC50 ([3]; erythrocyte) was “Not Active”. For the same compound, the IC50 [4] was “Not Active”, the IC50 [5] was “Not Active” and the IC50 [6] was “Not Active”. For the same compound, the Ki [6] was “Not Active” and the IC50 [7] was “Not Active”.

For `CC(=O)Nc1ccc2c(c1)Cc1ccccc1-2` [2-ACETYLAMINOFLUORENE], the IC50 [1] was “Not Active”, the IC50 ([2]; platelet) was “Not Active” and the IC50 ([3]; erythrocyte) was “Not Active”. The IC50 [4] was “Not Active”, the IC50 [5] was “Not Active” and the IC50 [6] was “Not Active”. For the same compound, the Ki [6] was “Not Active” and the IC50 [7] was “Not Active”.

For `C=C(Cl)Cl` [1,1-DICHLOROETHENE], the IC50 [1] was “Not Active”, the IC50 ([2]; platelet) was “Not Active” and the IC50 ([3]; erythrocyte) was “Not Active”. For the same compound, the IC50 [4] was “Not Active”, the IC50 [5] was “Not Active” and the IC50 [6] was “Not Active”. The Ki [6] was “Not Active” and the IC50 [7] was “Not Active”.

For `C#C[C@]1(O)CC[C@H]2[C@@H]3CCC4=CC(=O)CC[C@@H]4[C@H]3CC[C@@]21C` [NORETHINDRONE], the IC50 [1] was “Not Active”, the IC50 ([2]; platelet) was “Not Active” and the IC50 ([3]; erythrocyte) was “Not Active”. The IC50 [4] was “Not Active”, the IC50 [5] was “Not Active” and the IC50 [6] was “Not Active”. The Ki [6] was “Not Active” and the IC50 [7] was “Not Active”.

For `CC[C@H]1OC(=O)[C@H](C)[C@@H](O[C@H]2C[C@@](C)(OC)[C@@H](O)[C@H](C)O2)[C@H](C)[C@@H](O[C@@H]2O[C@H](C)C[C@H](N(C)C)[C@H]2O)[C@](C)(O)C[C@@H](C)C(=O)[C@H](C)[C@@H](O)[C@]1(C)O` [ERYTHROMYCIN], the IC50 [1] was “Not Active”, the IC50 ([2]; platelet) was “Not Active” and the IC50 ([3]; erythrocyte) was “Not Active”. The IC50 [4] was “Not Active”, the IC50 [5] was “Not Active” and the IC50 [6] was “Not Active”. The Ki [6] was “Not Active” and the IC50 [7] was “Not Active”.

For `c1ccc2c(c1)Nc1ccccc1S2` [PHENOTHIAZINE], the IC50 [1] was “Not Active”, the IC50 ([2]; read-out: IC50) was 196 nM and the IC50 ([3]; erythrocyte) was “Not Active”. For the same compound, the IC50 [4] was “Not Active”, the IC50 [5] was “Not Active” and the IC50 [6] was “Not Active”. The Ki [6] was “Not Active” and the IC50 [7] was “Not Active”.

For `C[C@H](C(=O)O)c1ccc2oc(-c3ccc(F)cc3)nc2c1` [FLUNOXAPROFEN], the IC50 [1] was “Not Active”, the IC50 ([2]; platelet) was “Not Active” and the IC50 ([3]; erythrocyte) was “Not Active”. The IC50 [4] was “Not Active”, the IC50 [5] was “Not Active” and the IC50 [6] was “Not Active”. For the same compound, the Ki [6] was “Not Active” and the IC50 [7] was “Not Active”.

For `CC1(COc2ccc(CC3SC(=O)NC3=O)cc2)CCCCC1` (stereo not given) [CIGLITAZONE], the IC50 [1] was “Not Active”, the IC50 ([2]; platelet) was “Not Active” and the IC50 ([3]; read-out: IC50) was 86 nM. For the same compound, the IC50 [4] was “Not Active”, the IC50 [5] was “Not Active” and the IC50 [6] was “Not Active”. The Ki [6] was “Not Active” and the IC50 [7] was “Not Active”.

For `C=CCN1CC[C@]23c4c5ccc(O)c4O[C@H]2/C(=N/N=C2\CC[C@@]4(O)[C@H]6Cc7ccc(O)c8c7[C@@]4(CCN6CC=C)[C@H]2O8)CC[C@@]3(O)[C@H]1C5` [NALOXONAZINE], the IC50 [1] was “Not Active”, the IC50 ([2]; platelet) was “Not Active” and the IC50 ([3]; erythrocyte) was “Not Active”. The IC50 [4] was “Not Active”, the IC50 [5] was “Not Active” and the IC50 [6] was “Not Active”. For the same compound, the Ki [6] was “Not Active” and the IC50 [7] was “Not Active”.

With `C[N+](C)(C)CCOP(=O)([O-])OC[C@H](O)CO` the IC50 [1] was “Not Active”, the IC50 ([2]; platelet) was “Not Active” and the IC50 ([3]; erythrocyte) was “Not Active”. The IC50 [4] was “Not Active”, the IC50 [5] was “Not Active” and the IC50 [6] was “Not Active”. For the same compound, the Ki [6] was “Not Active” and the IC50 [7] was “Not Active”.
